# According to patent US20100120700A1, “METHODS AND COMPOSITIONS FOR TREATING CERVICAL CANCER” (priority 2000, published 2010):
# Entries after “also recorded” stand apart in the source; their conditions may differ.
# Test system: c-JUN N-terminal kinase (JNK)
# Test: Jun kinase assay in microinjected Xenopus oocytes
# Type: cell-based
# Description: Experimental Design: This experiment was divided into two phases. In the first phase, an MBP-E6 fusion protein (HPV16; see example 4) was microinjected into Xenopus oocytes at different concetrations and then the oocytes were assayed for INK activity. In the second phase, peptides corresponding to the C-termini of non-oncogenic E6 protein (HPV11), HPV16 E6 (oncogenic) or Tax (shown to block oncogenic E6 binding to PDZ domains, FIG. 3) were co-injected with an activating amount of MBP-E6 fusion protein to assess ther abilities to block JNK activation.
# Isolation and Microinjection of Oocytes—Xenopus ovarian tissue was surgically removed, and oocytes were defolliculated for 1-1.5 h at room temperature with 2 mg/ml collagenase and 0.5 mg/ml polyvinylpyrrolidone in Ca21-free modified Barth's solution (88 mM NaCl, 1 mM KCl, 0.82 mM MgSO4, 2.4 mM NaHCO3, 10 mM HEPES, pH 7.5). The oocytes were then washed four times with modified Barth's solution. Stage VI oocytes were sorted manually and incubated at 16° C. for at least 10 h in OR2 solution (82.5 mM NaCl, 2.5 mM KCl, 1 mM CaCl2, 1 mM Na2HPO4, 5 mM HEPES, pH 7.5) supplemented with 1 mg/ml bovine serum albumin and […] gentamicin. Immature oocytes were microinjected with purified MBP-E6 protein or E6 protein and peptide and transferred to fresh OR2 for the duration of the time course. Five oocytes were collected per time point, frozen on dry ice, and stored at −80° C.
# Lysis of Oocytes, Eggs, and Embryos—Frozen oocytes, eggs, and embryos were thawed rapidly and lysed by pipetting up and down in 60 ml of ice-cold extraction buffer (EB) (0.25 M sucrose, 0.1 M NaCl, 2.5 mM MgCl2, 20 mM HEPES, pH 7.2) containing 10 mM EDTA, protease inhibitors (10 mg/ml leupeptin, 10 mg/ml pepstatin, 10 mg/ml aprotinin, 1 mM phenylmethylsulfonyl fluoride), and phosphatase inhibitors (50 mM 2-glycerophosphate, 1 mM sodium orthovanadate, 2 mM microcystin). Samples were clarified by centrifugation for 2.5 min in a Beckman E microcentrifuge with a right angle rotor. Crude cytoplasm was collected and processed for immunoblotting or kinase assays, as described below.
# Jun Kinase Assay—Jun kinase assays were performed as described. Crude oocyte, egg, or embryo cytoplasm was diluted 1:1 in EB and pre-cleared with 20 ml of glutathione-Sepharose beads (Amersham Pharmacia Biotech) for 1 h at 4° C. with moderate shaking. Lysates were incubated with glutathione S-transferase GST-c-Jun-(1-79) fusion protein (hereafter denoted GST-Jun) immobilized on glutathione- Sepharose beads. After 3 h at 4° C., the beads were washed three times with 50 mM HEPES, pH 7.5, 150 mM NaCl, 1% Triton X-100, 1 mM EDTA, 10% glycerol, 10 mM sodium pyrophosphate, 2 mM sodium orthovanadate, 10 mM sodium fluoride, 1 mM phenylmethylsulfonyl fluoride, and 10 mg/ml aprotinin (24) and once with 0.4 ml of kinase buffer (20 mM HEPES, pH 7.5, 10 mM MgCl2, 1 mM dithiothreitol, 200 mM sodium orthovanadate). The bound JNK activity was detected by the addition of 1 mCi of [g-32]JATP. The reaction was terminated after 20 min at 30° C., and the products were resolved by SDS-PAGE. The gels were transferred to PVDF membranes (Hybond; Amersham Pharmacia Biotech) and the incorporation of [32P]phosphate into GST-Jun was visualized by autoradiography. […]
substance,measurement,value
"20 mer peptide corresponding to the C-terminus of HPV16 E6 (PDZ ligand), biotinylated in binding assays; ends SSRTRRETQL (SEQ ID NO: 13) [HPV E6 #16]",inhibition of HPV16 E6-dependent JNK activation by co-injected peptide,can be inhibited by peptide representing HPV E6 16 oncoprotein; also recorded: can be inhibited by peptide representing the c-terminus of the HPV16 E6 oncoprotein; also recorded: blocked E6-dependent INK activation
